# Experimental data from patent publication EP0338042B1, “COMPOSITION AND METHOD FOR TREATING HEPATITIS VIRUS INFECTIONS USING 1-(2'-DEOXY-2'-FLUORO-BETA-D-ARABINOFURANOSYL)-5-ETHYLURACIL” (priority 1987, dated 1989).
# Assays:
# [1] = system: woodchuck hepatitis virus (WHV); test: Inhibition of WHV replication in chronically infected woodchucks (DNA polymerase activity); type: in vivo, woodchucks (Marmota monax)
# Protocol: All woodchucks bearing chronic active hepatitis virus (Hantz, supra) were administered FMAU twice daily by interperitoneal injections of FMAU in the following dosages:
# Studies were then undertaken to evaluate FMAU and FEAU in this animal model using woodchucks naturally chronically-infected with woodchuck hepatitis virus (24). It was assumed that these nucleosides would be anabolized to their nucleoside triphosphates within the animal. WHV replication was measured periodically by the endogenous DNA polymerase activity and by the detection of WHV DNA by the dot-blot hybridization assay. Three different dosages of FMAU and FEAU were investigated. FMAU at 2 mg/kg/day x 5, (given intraperitoneally TABLE VIII
# In accordance with the procedures of Example 2, the FEAU inhibition of WHV replication was further studied at different doses administered orally to woodchucks through stomach tubes. Two groups of woodchucks with different initial WHV replication values were examined.
# Seven woodchucks with high WHV replication were tested. High replication was defined as over 1000 counts per minute of DNA polymerase activity, and the mean replication was 1600.
# Seven woodchucks with low WHV replication were tested. Low replication was defined as lower than 1000 counts per minute of DNA polymerase activity, and the mean replication was 600-800.
# HSV-1(F) [2] = test: Plaque reduction assay in Vero cells; type: cell-based; conditions: monkey
# From the text: (§1) With FMAU as a lead compound, the syntheses of other 5-alkyl substituted 2′-fluoro-ara-uracils were undertaken (8, 9), including 1-(2′-deoxy-2′-fluoro-beta-D-arabinofuranosyl)-5-ethyluracil [FEAU].
# HSV-2(G) [3] = test: Plaque reduction assay in Vero cells; type: cell-based; conditions: monkey
# From the text: as §1
# HL-60 CELLS = test: Inhibition of cell growth; type: cell-based; conditions: Homo sapiens, HL-60; read-out: ED50 FOR INHIBITING CELL GROWTH IN HL-60 CELLS
# Vero cells = test: Inhibition of cell growth; type: cell-based, African green monkey; conditions: Chlorocebus sabaeus, read-out: ED50 FOR INHIBITING CELL GROWTH IN VERO CELLS
# P-815 CELLS = test: Inhibition of thymidine incorporation into DNA; type: cell-based, rodent; conditions: Mus musculus, P815; read-out: ED50 FOR INHIBITING THYMIDINE INCORPORATION INTO DNA, P-815 CELLS
# L-1210 CELLS = test: Inhibition of thymidine incorporation into DNA; type: cell-based, rodent; conditions: Mus musculus, L1210; read-out: ED50 FOR INHIBITING THYMIDINE INCORPORATION INTO DNA, L-1210 CELLS
# RAT BONE MARROW CELLS = test: Inhibition of thymidine incorporation into DNA; type: cell-based; conditions: Bone marrow cell, read-out: ED50 FOR INHIBITING THYMIDINE INCORPORATION INTO DNA, RAT BONE MARROW CELLS
# L-1210 = test: Incorporation of 2-14C-labeled nucleoside into DNA of cells; type: cell-based, rodent; conditions: FEAU also not detectable at 100 μM
# From the text: (§2) There was no detectable incorporation of FEAU radioactivity into the DNA of either L-1210 or Vero cell lines, but substantial amounts of FMAU radioactivity were incorporated into the DNA of both cell lines. When HSV-1 infected Vero cells were exposed to ¹⁴C-labeled FEAU and FMAU, both nucleosides incorporated into the DNA of these virus-infected cells.
# [4] = system: HSV-1 INFECTED VERO CELLS; test: as above; type: cell-based, African green monkey
# From the text: as §2
# VERO = test: as above; type: cell-based, African green monkey; conditions: FEAU also not detectable at 100 μM
# From the text: as §2
# HSV-1(F) [5] = conditions: plaque reduction in Vero cells, cited from earlier work
# HSV-2(G) [6] = conditions: plaque reduction in Vero cells, cited from earlier work
# HSV-2 (STRAIN G) = conditions: FMAU 0.5 MG/KG/DAY, cited from earlier work
# [7] = in vivo experiments with mice; cited from earlier work
# [8] = patients with advanced cancer, x 5; cited from earlier work
# [9] = system: simian varicella virus (SVV); test: Simian varicella virus infection in the African green monkey
# [10] = 0.2 mg/kg/day, FMAU x 5, FEAU x 10
structure (smiles),measurement,setting,value
"Cc1cn([C@@H]2O[C@H](CO)[C@@H](O)[C@@H]2F)c(=O)[nH]c1=O [FMAU, 1-(2'-deoxy-2'-fluoro-beta-D-arabinofuranosyl)-5-methyluracil, reference compound]",suppression of viral replication,[1]; [10],equally effective
same,toxicity,[1]; [10],less severe and delayed toxicity
same,WHV DNA polymerase activity,"[1]; 2 mg/kg/day x 5, intraperitoneally",complete suppression
same,toxicity,"[1]; 2 mg/kg/day x 5, intraperitoneally, eventually lethal",severe CNS toxicity
same,persistence of inhibition of WHV replication after cessation of treatment,[1]; i.p. 2 mg/kg per day for 7 days or 4 mg/kg per day for 5 days,20 to 50 days
same,woodchuck hepatitis virus DNA polymerase,"[1]; i.p. twice daily, 2 mg/kg per day for 7 days or 4 mg/kg per day for 5 days, end of one week following dosage administrations",fallen to background levels
same,toxicity (previous results),"[1]; woodchucks, previous results",lethal toxicity
same,THER. INDEX ID₅₀/ED₉₀ HSV-1,HSV-1(F) [2],67
same,THER. INDEX ID₅₀/ED₉₀ HSV-2,HSV-2(G) [3],31
same,EC50,HL-60 CELLS,15400 nM
same,EC50,Vero cells,2800 nM
same,EC50,P-815 CELLS,14000 nM
same,EC50,L-1210 CELLS,28000 nM
same,EC50,RAT BONE MARROW CELLS,8900 nM
same,"INCORPORATION INTO DNA AT 10μM, L-1210",L-1210,0.69 p MOLE/10^6 CELLS/HR
same,incorporation into HSV-1-infected Vero cells compared with FEAU,[4],seven-fold greater
same,"INCORPORATION INTO DNA AT 10μM, HSV-1 INFECTED VERO CELLS",[4]; [2-14C] labeled nucleoside,3.4 p MOLE/10^6 CELLS/HR
same,"INCORPORATION INTO DNA AT 10μM, VERO",VERO,1.3 p MOLE/10^6 CELLS/HR
same,EC50,HSV-1(F) [5]; read-out: HSV-1(F) ED₅₀,10 nM
same,EC90,HSV-1(F) [5]; read-out: HSV-1(F) ED₉₀,42 nM
same,EC50,HSV-2(G) [6]; read-out: HSV-2(G) ED₅₀,23 nM
same,EC90,HSV-2(G) [6]; read-out: HSV-2(G) ED₉₀,90 nM
same,MDD,"HSV-2 (STRAIN G); twice a day for 4 days from 5 hr after inoculation, calculated on day 21",9.4
same,% SURVIVORS,HSV-2 (STRAIN G); twice a day for 4 days,67%
same,%WT GAIN ON DAY 7,HSV-2 (STRAIN G); compared to day 1,1%
same,%WT GAIN ON DAY 14,HSV-2 (STRAIN G); compared to day 1,4%
same,%WT GAIN ON DAY 21,HSV-2 (STRAIN G); compared to day 1,5%
same,%WT GAIN ON DAY 30,HSV-2 (STRAIN G); compared to day 1,7%
same,toxicity,[7],relatively nontoxic
same,intravenous dose with dose-limiting CNS toxicity,[8],0.8 mg/kg/day
same,neurotoxicity,Toxicity in dogs,very neurotoxic
same,lethal dose,"Toxicity in dogs; FMAU i.v. x 5, FEAU x 10 (preliminary)",2.5 mg/kg/day
same,minimal effective dose,"[9]; Cercopithecine alphaherpesvirus 9, in Primates",~0.04 mg/kg/day
same,potency against SVV compared with FEAU,"[9]; monkey, in vivo",about 40 fold
